Test [1] concerns full thickness incision wounds. Kind of test: Rat full thickness incision model (Example 2). To be noted: for early inflammation and wound dehiscence / number of incisions that were free of scar / overall scar formation: into the subcutaneous space prior to closure with DermaBond; for early inflammation and wound dehiscence: FIG. 1, day 5; for number of incisions that were free of scar: later time points after healing, FIG. 2, days 14, 19, 21; for overall scar formation: later time points, FIG. 3, scar score rank days 14 and 19; for healing time / number of incisions with no scar by gross observations: repeated; for healing time: systemic administration (especially pretreatment with 100 μg/kg body weight/day of 9GD), FIGS. 4-6; for number of incisions with no scar by gross observations: systemic administration, FIGS. 7-9, days 14 and 21. It is filed as in vivo, Sprague Dawley rats. The procedure:
This study was designed to compare the effect of a daily administration of AII(1-7) and 9GD on the healing of full thickness incision wounds in a rat model. For topical administration, the viscous vehicle was prepared from carboxymethylcellulose (CMC sodium salt, low viscosity, Sigma Chemical CO., St. Louis, Mo. (Lot number 34H0310)), consisting of 10% low viscosity CMC in 0.05 M phosphate buffer, pH 7.2, and was sterilized by autoclaving followed by mixing with sterile peptide solutions or DermaBond (provided by Ethicon, Inc.), AII(1-7) and 9GD were prepared by Bachem (Torrence, Calif.) under GMP conditions.
During the experimental period, Sprague Dawley rats (5 per group) were used in this study. The rats were housed one per cage in the University of Southern California vivarium on a 12:12 hour light/dark cycle. Food and water were available ad libitum.
On the dorsal surface of the rats, two full thickness incisions (approximately 3 cm in length) were made on a prepared surface under aseptic conditions. After injury, placebo or AII(1-7) (100 μg/wound [topical], or 100 μg/kg body weight [systemic]) or 9GD (10, 100, or 500 μg/wound [topical], or 10, 100, or 500 μg/kg body weight [systemic]) was administered. The wound was sutured closed (if the peptide was not given in an adhesive base) or was closed with […] (in groups that have the peptide administered with cyanoacrylate (DermaBond™)).
The animals were monitored for breathing, urination, and movement during the postoperative interval. Postoperative analgesic included twice daily administration of bupronex for 3 days post-operation. […] On day 21, the rats were euthanized by CO2 asphyxiation and tissues were harvested for histologic preparation.
Scar formation was assessed grossly, including assessment of inflammationh, dehiscence, scabbing, healing (defined as % of incision healed), and scarring. Inflammation, dehiscence, scabbing, and scarring were assessed on a 4 point scale (0, 1, 2, or 3) for none, mild, moderate, and severe, respectively. The severity of the scar was defined by the appearance of disruption, the contour of the healing site, the raising of the healing area, and the ability to note by gross observation that the wound had been made.

For a further test, the system named is wound tissue. To be noted: application to wound tissue; cited from earlier work.
For test [2], the system named is chick chorioallantoic membrane. To be noted: chick chorioallantoic membrane model; cited from earlier work.
The subject of the next test is rabbit corneal eye. To be noted: rabbit corneal eye model; cited from earlier work.
In test [3] the test system is primary human keratinocytes. To be noted: via a non-AT1, non-AT2 receptor; cited from earlier work.
Test [4] relates to cultured cells that are involved in wound repair. To be noted: cited from earlier work.
Test [5] relates to 2 cm midline laparotomy incision. Briefly: Anti-scarring effect after rat laparotomy (Example 1). The test is classed as in vivo, Sprague Dawley rats. To be noted: 100 μg/kg/day subcutaneously, 3 days prior to surgery and 11 days until necropsy; 11 day post-operative observation. The procedure: Female Sprague Dawley rats, weighing between 175 and 225 grams each, were used in this study. The rats were quarantined at least two days prior to surgery. The rats were housed in the University of Southern California vivarium on a 12:12 hour light/dark cycle. Food and water were available ad libitum except in the immediate postoperative period.
The rats underwent a standardized procedure for laparotomy (intramuscular anesthesia with ketamine/rompum, shaving with animal clippers, betadine scrub, alcohol scrub). A 2 cm incision was then made on the midline. A double-walled gelatin capsule was placed on the right side of the abdomen through the incision. The animals were subcutaneously injected with the peptides (detailed below) (100 μg/kg/day) for 3 days prior to surgery, and then for 11 days until necropsy. The abdominal wall and skin was then sutured closed using two layers of 4-0 Ethilon suture. Following surgery, the rats received analgesic for three days and were observed twice daily for signs of morbidity and mortality.

Test [6] in a line: Unspecified test of effectiveness of AII fragments. To be noted: test not specified.
[7] abbreviates: single dose in CMC in the subcutaneous space, FIG. 10.
[8] abbreviates: single dose in CMC in the subcutaneous space, FIG. 11.

“Also recorded” adds a separate entry of the source. Where no end group is shown, it is not given here. [ ]: non-standard residue; d: D form. Nle = CCCC[C@H](N)C(=O)O

In the case of “Asp-Arg-Val-Tyr-Ile-His-Pro (DRVYIHP) [AII(1-7)]”, in test [1], the “early inflammation and wound dehiscence” value is “reduced”; the “number of incisions that were free of scar” value is “increased”; the overall scar formation entry is “increased”; the healing time entry is recorded as “accelerated”. Besides, in test [1], the “number of incisions with no scar by gross observations” value is “increased”. The healing result in test [1] (setting [7]) was “accelerated healing”. Also, in test [1] (setting [8]), the scar formation result was “reduced scar formation”. In test [1] (single dose, systemic), the healing entry is “did not accelerate healing” and the scar formation entry is on record as “did reduce scar formation”.

Take Asp-Arg-Val-Tyr-Ile-His-Pro-Phe [AII]: the “rate of wound healing” value with wound tissue is reported as “significantly increases”. Further, the angiogenic entry in test [2] is recorded as “angiogenic”. Moreover, in the test with rabbit corneal eye, the angiogenic entry is “angiogenic”. Besides, the “proliferation of primary human keratinocytes” value in test [3] is given as “stimulate proliferation”. Besides, in test [4], the mitogenesis and chemotaxis entry is given as “increases”; the “release of growth factors and extracellular matrices” value is on record as “increases”.

Take DR(nor)YIHP (DR[Nle]YIHP) [9GD]: in test [1], the “early inflammation and wound dehiscence” value is listed as “reduced”; the “number of incisions that were free of scar” value was “increased”; the overall scar formation entry is recorded as “increased”; the healing time result was “accelerated”. Also, in test [1], the “number of incisions with no scar by gross observations” value is reported as “increased”. In addition, the healing entry in test [1] (setting [7]) is on record as “accelerated healing”. In addition, the scar formation result in test [1] (setting [8]) is “reduced scar formation”. Also, in test [1] (single dose, systemic), the healing result is on record as “did not accelerate healing” and the scar formation entry is on record as “did reduce scar formation”. In addition, in test [5], the “scar apparent upon gross observation” value is reported as “no scar was apparent” and the wound closure result is recorded as “complete”.

Turning to DRKYIHP [5GD], in test [5], the “scar apparent upon gross observation” value was “no scar was apparent” and the wound closure entry is recorded as “complete”.

With His-Pro-Phe (HPF) [AII(6-8)], in test [6], the effectiveness result was “not to be effective”.

As for Tyr-Ile-His-Pro-Phe (YIHPF) [AII(4-8)], in test [6], the effectiveness result is “not to be effective; also recorded: ineffective”.
